According to US11441119B2, “Culture media comprising n-Acyl-X-glutamine dipeptides” (Evonik Operations GmbH, priority 2017, dated 2022):
Residues, ends and D or L forms follow the SMILES beside them.

What was measured:
[1] = system: Chinese Hamster Ovary (CHO) cells (Subclone DG44); experiment: Batch cultivation of CHO DG44 cells in glutamine-free PowerCHO-2 CD medium supplemented with glutamine sources: growth and productivity; format: cell-based; conditions: for Relative cell-specific productivity: relative titer/IVCD relative to 100% free glutamine; for Relative time-related productivity: relative titer/cultivation time relative to free glutamine; for Relative titer / Cultivation time until 80% viability / Integrated viable cell density (IVCD): total glutamine 8 mM; for Relative titer: relative to titer of 100% free glutamine; for Cultivation time until 80% viability / Integrated viable cell density (IVCD): third passage; for Integrated viable cell density (IVCD): until viability below 80%; for Performance in batch cultivation, in words (titer, productivities): comparison of the supplements of Tables 1 and 2
Procedure: Acetyl-A-Q was mixed with free glutamine or A-Q in molar ratios between 0 and 100%. The mixtures were added to a glutamine-free medium (PowerCHO-2 CD, Lonza AG, Visp, Switzerland) to obtain a total glutamine concentration of 8 mM in the final medium. Growth and productivity were measured using Chinese Hamster Ovary (CHO) cells (Subclone DG44; Life Technologies Cooperation, Carlsbad, USA). Cultivation was continued up to the point where the viability of the culture dropped below 80%. Data from the third passage was used. All titer-related information is given relative to the titer of 100% free glutamine. Accordingly, the relative cell-specific productivity was obtained by first dividing the relative titer by the integrated viable cell density (IVCD), then dividing this number by the titer/IVCD ratio for 100% free glutamine. The relative time-specific productivity was obtained by dividing the relative titer by the cultivation duration until the sampling, then dividing this number by the titer/cultivation time ratio for free glutamine. In a second set of experiments within the same experimental campaign, acetyl-A-Q was mixed with A-Q and tested under the same conditions as described above. The 100% points for acetyl-A-Q as well as the free glutamine reference are identical to the first example.

[2] = system: Chinese Hamster Ovary (CHO) cells (Subclone DG44); experiment: Fed-batch cultivation of CHO DG44 cells with glutamine sources in basal medium and feed supplement: growth and productivity; format: cell-based
Procedure: Free glutamine, A-Q or Acetyl-A-Q were added to a glutamine-free medium (PowerCHO-2 CD, Lonza AG, Visp, Switzerland) to obtain a total glutamine concentration of 8 mM in the final medium.
In addition, these substances as well as a 75% mixture of acetyl-A-Q and A-Q were added to a glutamine-free formulation of a commercial feed supplement (CHOMACS Feed Supplement, Miltenyi Biotech, Germany) to yield a glutamine concentration of 5.5 g/L. Growth and productivity were measured using Chinese Hamster Ovary (CHO) cells (Subclone DG44; Life Technologies Cooperation, Carlsbad, USA).The results are summarized in Table 3. All titer-related information is given relative to the titer obtained by adding free glutamine to basal medium and feed. Accordingly, the relative cell-specific productivity was obtained by first dividing the relative titer by the integrated viable cell density (IVCD), then dividing this number by the titer/IVCD ratio for 100% free glutamine. The relative time-specific productivity was obtained by dividing the relative titer by the cultivation duration until the sampling, then dividing this number by the titer/cultivation time ratio for free glutamine.

[3] = basal medium source/feed source, 8 mM glutamine in medium, 5.5 g/L in feed

Compound	Relative cell-specific productivity ([1]; acetyl-A-Q mixed with A-Q) [%]	Relative time-related productivity ([1]; acetyl-A-Q mixed with A-Q) [%]	Relative titer ([1]; acetyl-A-Q mixed with A-Q)	Cultivation time until 80% viability ([1]; acetyl-A-Q mixed with A-Q)	Integrated viable cell density (IVCD) ([1]; acetyl-A-Q mixed with A-Q)	Performance in batch cultivation, in words (titer, productivities) [1]	Relative cell-specific productivity ([1]; acetyl-A-Q mixed with free Q) [%]	Relative time-related productivity ([1]; acetyl-A-Q mixed with free Q) [%]	Relative titer ([1]; acetyl-A-Q mixed with free Q)	Cultivation time until 80% viability ([1]; acetyl-A-Q mixed with free Q)	Integrated viable cell density (IVCD) ([1]; acetyl-A-Q mixed with free Q)	Performance in fed-batch cultivation, in words (productivity, cell density, titer) ([2]; comparison of the combinations of Table 3)	Cultivation time until 80% viability [2, 3]	Integrated viable cell density (IVCD) [2, 3]	Relative cell-specific productivity ([2]; relative titer/IVCD relative to 100% free glutamine) [%]	Relative time-related productivity ([2]; relative titer/cultivation time relative to free glutamine) [%]	Relative titer ([2]; relative to titer with free glutamine in basal medium and feed)
C[C@H](N)C(=O)N[C@@H](CCC(N)=O)C(=O)O [100% AQ, alanyl-glutamine] (H-Ala-Gln-OH)	75	102	1.10	13.9	47.1	performs at a lower level in all relevant categories	–	–	–	–	–	–	–	–	–	–	–
NC(=O)CC[C@H](N)C(=O)O [100% Q, L-glutamine]	100	100	1.00	12.9	32.0	–	100	100	1.00	12.9	32.0	–	–	–	–	–	–
CC(=O)N[C@@H](C)C(=O)N[C@@H](CCC(N)=O)C(=O)O [100% acetyl-A-Q, acetyl-A-Q] (Ac-Ala-Gln-OH)	434	99	1.37	17.9	10.1	best values for relative titer and cell-specific productivity	434	99	1.37	17.9	10.1	very high cell-specific productivities, but very low cell density	–	–	–	–	–
CC(=O)N[C@@H](C)C(=O)N[C@@H](CCC(N)=O)C(=O)O [Acetyl A-Q/acetyl-A-Q] (Ac-Ala-Gln-OH)	–	–	–	–	–	–	–	–	–	–	–	–	15.0	8.2	145	18	0.2
